Data as given in patent publication US20020137929A1, “1 - (3-heterocyclylphenyl) isothiourea, -isourea, -guanidine and -amidine herbicidal agents” (Intellectual Property Department, BASF Aktiengesellschaft, priority 1998, published 2002).

Legend:
CYPIR (Rice Flatsedge) = experiment: Preemergence weed control under flooded paddy conditions; type: in vivo, Cyperus iria; conditions: rated 3-4 weeks after treatment
Summary of the method: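 Silt loam, seeds in top 0.5 cm; flood held 1.5-3 cm; test cpd as acetone/water 50/50 into flood water, ~0.0313-0.500 kg/ha a.i.; greenhouse 3-4 wk; visual 0-9 score vs control.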

GALAP (Galium) [1] = experiment: Preemergence herbicidal evaluation; type: in vivo, Galium aparine; conditions: rated 4-5 weeks after treatment
Summary of the method: (§1)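 Seeds were planted in potting soil in cups, then sprayed preemergence with the test compound in aqueous acetone at about 0.0156 to 0.500 kg per hectare. Cups were kept under greenhouse conditions and visually rated 4–5 weeks after treatment on a 0–9 scale against an untreated control.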

[2] = test system: CHEAL (Lambsquarters, Common); experiment: Postemergence herbicidal evaluation; type: in vivo, Chenopodium album; conditions: postemergence
Summary of the method: (§2)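 Herbicidal effect was judged by eye on a 0–9 scale covering stand, vigor, deformity, size and chlorosis, compared with controls, four to five weeks after seedlings about two weeks old were sprayed (40 psi, ~0.0156–0.500 kg/ha).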

CYPSE (Flatsedge) [3] = experiment: Preemergence weed control under flooded paddy conditions; type: in vivo, Cyperus serotinus; conditions: rated 3-4 weeks after treatment
Summary of the method: (§3)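 Seeds or propagules sown in silt loam kept flooded 1.5-3 cm; compounds in 50/50 acetone/water pipetted into flood water at about 0.0313 to 0.500 kg/ha. Greenhouse; visual 0-9 rating versus untreated control 3-4 weeks after treatment.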

SETVI (Foxtail, Green) = experiment: Postemergence herbicidal evaluation; type: in vivo, Setaria viridis; conditions: postemergence
Summary of the method: as §2

CASOB (Sicklepod) [4] = experiment: Postemergence herbicidal evaluation; type: in vivo, Cassia obtusifolia; conditions: postemergence
Summary of the method: as §2

GALAP (Galium) [5] = experiment: Postemergence herbicidal evaluation; type: in vivo, Galium aparine; conditions: postemergence
Summary of the method: as §2

CYPSE (Flatsedge) [6] = experiment: Postemergence weed control under flooded paddy conditions; type: in vivo, Cyperus serotinus; conditions: postemergence weeds, 3-4 weeks after treatment
Summary of the method: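 With weeds 3 to 5 cm tall and rice at the 1.5 to 2.5 leaf stage, containers were flooded and water held 1.5 to 3 cm above soil. Compounds in 50/50 v/v aqueous/acetone went into the flood water at about 0.0313 to 0.500 kg/ha a.i. Effects were visually rated 0–9 against controls after three to four weeks in the greenhouse.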

AMBEL (Ragweed, Common) = experiment: Postemergence herbicidal evaluation; type: in vivo, Ambrosia artemisifolia; conditions: postemergence
Summary of the method: as §2

CASOB (Sicklepod) [7] = experiment: Preemergence herbicidal evaluation; type: in vivo, Cassia obtusifolia; conditions: rated 4-5 weeks after treatment
Summary of the method: as §1

[8] = test system: GLXMAW (Soybean, Williams); experiment: Postemergence herbicidal evaluation; type: in vivo, Glycine max, (L.) Merr. cv Williams; conditions: postemergence
Summary of the method: as §2

ECHCG (Barnyardgrass) = experiment: Postemergence herbicidal evaluation; type: in vivo, Echinochloa crus-galli; conditions: postemergence
Summary of the method: as §2

ZEAMX (Corn, Field) = experiment: Preemergence herbicidal evaluation; type: in vivo, Zea mays; conditions: rated 4-5 weeks after treatment
Summary of the method: as §1

ORYSAT (Rice, Tebonnet) = experiment: Postemergence herbicidal evaluation; type: in vivo, Oryza sativa, (L.) Tebonnet; conditions: postemergence
Summary of the method: as §2

[9] = test system: SAGPY (Arrowhead (Pygmaea)); experiment: Preemergence weed control under flooded paddy conditions; type: in vivo, Sagittaria pygmaea; conditions: rated 3-4 weeks after treatment
Summary of the method: as §3

CCOC(=O)CN1C(=O)C(F)SC1=Nc1cc(-n2c(=O)cc(C(F)(F)F)n(C)c2=O)c(F)cc1Cl (stereo not drawn) [Compound 11, Ethyl 2-{{2-chloro-5-[3,6-dihydro-3-methyl-2,6-dioxo-4-(trifluoromethyl)-1(2H)-pyrimidinyl]-4-fluorophenyl}imino}-5-fluoro-4-oxo-3-thiazolidineacetate]
7.5: GLXMAW herbicidal rating ([8]; rate 0.0313 kg/ha)
3.5: ZEAMX preemergence herbicidal rating (ZEAMX (Corn, Field); rate 0.0625 kg/ha)
5.5: CASOB preemergence herbicidal rating (CASOB (Sicklepod) [7]; rate 0.2500 kg/ha) | ZEAMX preemergence herbicidal rating (ZEAMX (Corn, Field); rate 0.2500 kg/ha)
7.0: CHEAL herbicidal rating ([2]; rate 0.0156 kg/ha) | ECHCG herbicidal rating (ECHCG (Barnyardgrass); rate 0.1250 kg/ha)
9.0: GALAP preemergence herbicidal rating (GALAP (Galium) [1]; rate 0.2500 kg/ha) | CHEAL herbicidal rating ([2]; rate 0.0313 kg/ha) | CHEAL herbicidal rating ([2]; rate 0.0625 kg/ha) | CHEAL herbicidal rating ([2]; rate 0.1250 kg/ha) | SETVI herbicidal rating (SETVI (Foxtail, Green); rate 0.1250 kg/ha) | AMBEL herbicidal rating (AMBEL (Ragweed, Common); rate 0.0313 kg/ha) | AMBEL herbicidal rating (AMBEL (Ragweed, Common); rate 0.0625 kg/ha) | AMBEL herbicidal rating (AMBEL (Ragweed, Common); rate 0.1250 kg/ha) | GLXMAW herbicidal rating ([8]; rate 0.0625 kg/ha) | GLXMAW herbicidal rating ([8]; rate 0.1250 kg/ha)
3.0: CASOB herbicidal rating (CASOB (Sicklepod) [4]; rate 0.1250 kg/ha) | GALAP herbicidal rating (GALAP (Galium) [5]; rate 0.0156 kg/ha) | ORYSAT herbicidal rating (ORYSAT (Rice, Tebonnet); rate 0.0625 kg/ha) | ORYSAT herbicidal rating (ORYSAT (Rice, Tebonnet); rate 0.1250 kg/ha)
0.5: ZEAMX preemergence herbicidal rating (ZEAMX (Corn, Field); rate 0.0313 kg/ha)
2.0: ORYSAT herbicidal rating (ORYSAT (Rice, Tebonnet); rate 0.0156 kg/ha) | ORYSAT herbicidal rating (ORYSAT (Rice, Tebonnet); rate 0.0313 kg/ha)
4.5: ZEAMX preemergence herbicidal rating (ZEAMX (Corn, Field); rate 0.1250 kg/ha)
1.0: AMBEL herbicidal rating (AMBEL (Ragweed, Common); rate 0.0156 kg/ha)
0.0: Herbicidal rating CYPIR (CYPIR (Rice Flatsedge); 0.0313 kg/ha) | Herbicidal rating CYPIR (CYPIR (Rice Flatsedge); 0.0625 kg/ha) | Herbicidal rating CYPIR (CYPIR (Rice Flatsedge); 0.1250 kg/ha) | Herbicidal rating CYPIR (CYPIR (Rice Flatsedge); 0.2500 kg/ha) | GALAP preemergence herbicidal rating (GALAP (Galium) [1]; rate 0.0156 kg/ha) | GALAP preemergence herbicidal rating (GALAP (Galium) [1]; rate 0.0313 kg/ha) | GALAP preemergence herbicidal rating (GALAP (Galium) [1]; rate 0.0625 kg/ha) | GALAP preemergence herbicidal rating (GALAP (Galium) [1]; rate 0.1250 kg/ha) | Herbicidal rating CYPSE (CYPSE (Flatsedge) [3]; 0.0313 kg/ha) | Herbicidal rating CYPSE (CYPSE (Flatsedge) [3]; 0.0625 kg/ha) | Herbicidal rating CYPSE (CYPSE (Flatsedge) [3]; 0.1250 kg/ha) | Herbicidal rating CYPSE (CYPSE (Flatsedge) [3]; 0.2500 kg/ha) | SETVI herbicidal rating (SETVI (Foxtail, Green); rate 0.0156 kg/ha) | SETVI herbicidal rating (SETVI (Foxtail, Green); rate 0.0313 kg/ha) | CASOB herbicidal rating (CASOB (Sicklepod) [4]; rate 0.0156 kg/ha) | CASOB herbicidal rating (CASOB (Sicklepod) [4]; rate 0.0313 kg/ha) | CASOB herbicidal rating (CASOB (Sicklepod) [4]; rate 0.0625 kg/ha) | Herbicidal rating CYPSE (CYPSE (Flatsedge) [6]; rate 0.0313 kg/ha) | Herbicidal rating CYPSE (CYPSE (Flatsedge) [6]; rate 0.0625 kg/ha) | Herbicidal rating CYPSE (CYPSE (Flatsedge) [6]; rate 0.1250 kg/ha) | Herbicidal rating CYPSE (CYPSE (Flatsedge) [6]; rate 0.2500 kg/ha) | CASOB preemergence herbicidal rating (CASOB (Sicklepod) [7]; rate 0.0156 kg/ha) | CASOB preemergence herbicidal rating (CASOB (Sicklepod) [7]; rate 0.0313 kg/ha) | CASOB preemergence herbicidal rating (CASOB (Sicklepod) [7]; rate 0.0625 kg/ha) | CASOB preemergence herbicidal rating (CASOB (Sicklepod) [7]; rate 0.1250 kg/ha) | ECHCG herbicidal rating (ECHCG (Barnyardgrass); rate 0.0156 kg/ha) | ECHCG herbicidal rating (ECHCG (Barnyardgrass); rate 0.0313 kg/ha) | ZEAMX preemergence herbicidal rating (ZEAMX (Corn, Field); rate 0.0156 kg/ha) | Herbicidal rating SAGPY ([9]; 0.0313 kg/ha) | Herbicidal rating SAGPY ([9]; 0.0625 kg/ha) | Herbicidal rating SAGPY ([9]; 0.1250 kg/ha) | Herbicidal rating SAGPY ([9]; 0.2500 kg/ha)
6.0: SETVI herbicidal rating (SETVI (Foxtail, Green); rate 0.0625 kg/ha) | GALAP herbicidal rating (GALAP (Galium) [5]; rate 0.0625 kg/ha) | GALAP herbicidal rating (GALAP (Galium) [5]; rate 0.1250 kg/ha) | ECHCG herbicidal rating (ECHCG (Barnyardgrass); rate 0.0625 kg/ha)
5.0: GALAP herbicidal rating (GALAP (Galium) [5]; rate 0.0313 kg/ha) | GLXMAW herbicidal rating ([8]; rate 0.0156 kg/ha)
